Data on 25 molecules can be found in patent US11058688B2, “Imidazopiperazine inhibitors of transcription activating proteins” (Board of Regents, The University of Texas System, priority 2018, dated 2021).

The target of experiment [1] is GST-CBP(1081-1197) bromodomain (Homo sapiens (Human), UniProt Q92793). Nature of the experiment: CBP AlphaScreen Assay. The settings on record: binding to biotin-H4(1-21) Ac-K5/8/12/16 peptide. As to the method: (§1) Specific binding of the CBP or BRD4 bromodomain to the acetylated peptide derived from the H4 histone substrate (tetra acetylated H4(1-21) Ac-K5/8/12/16) was measured in absence or presence of inhibitors.
(§2) The standard dose response curves were fitted by Genedata Screener software using the variable-slope model: Signal=Signalnegative control+(SignalDMSO control−Signalnegative control)/(1+(IC50/Dose)^Hill slope).
(§3) Only Signal and Dose in the equation were treated as known values.

The target in a further experiment is BRD4(49-170) bromodomain (Homo sapiens (Human), UniProt O60885). Nature of the experiment: BRD4 AlphaScreen Assay. The settings on record: binding to biotin-H4(1-21) Ac-K5/8/12/16 peptide. The method, then: as §1, §2, §3
On the technique in general: In Alpha technology, singlet oxygen from a donor bead excites a nearby acceptor bead.

Where only a bound is given, the exact number is not on record here.

GST-CBP(1081-1197) bromodomain, sequence (Q92793 1081-1197): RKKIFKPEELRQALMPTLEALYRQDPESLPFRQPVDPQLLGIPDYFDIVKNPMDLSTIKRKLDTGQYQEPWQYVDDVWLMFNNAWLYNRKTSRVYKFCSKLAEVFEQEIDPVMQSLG

Consider `CC(=O)N1CCn2c(C3CC3)nc(-c3ccc4c(c3)c(-c3cnn(C)c3)nn4C)c2C1` [Example 1, 1-(3-cyclopropyl-1-(1-methyl-3-(1-methyl-1H-pyrazol-4-yl)-1H-indazol-5-yl)-5,6-dihydroimidazo[1,5-a]pyrazin-7(8H)-yl)ethan-1-one], for which the IC50 in experiment [1] is 47 nM; at BRD4(49-170) bromodomain it was > 10000 nM. In the same order, the values of `CNC(=O)N1CCn2c(C3CC3)nc(-c3ccnc4cc(-c5cnn(C)c5)c(OC(F)(F)F)cc34)c2C1` [Example 2, 3-cyclopropyl-N-methyl-1-(7-(1-methyl-1H-pyrazol-4-yl)-6-(trifluoromethoxy)quinolin-4-yl)-5,6-dihydroimidazo[1,5-a]pyrazine-7(8H)-carboxamide] are 3 nM and 8900 nM. Consider `CNC(=O)N1CCn2c(C3CC3)nc(N3CCCc4cc(-c5cnn(C)c5)c(C(F)F)cc43)c2C1` [Example 3, 3-cyclopropyl-1-(7-(difluoromethyl)-6-(1-methyl-1H-pyrazol-4-yl)-3,4-dihydroquinolin-1(2H)-yl)-N-methyl-5,6-dihydroimidazo[1,5-a]pyrazine-7(8H)-carboxamide], for which the IC50 in experiment [1] is 5 nM; on BRD4(49-170) bromodomain, > 10000 nM. Take `COC(=O)N1CCn2c(C3CCOC3)nc(-c3ccc4c(c3)c(-c3cnn(C)c3)nn4C)c2C1` (stereo not drawn) [Example 5, Methyl 1-(1-methyl-3-(1-methyl-1H-pyrazol-4-yl)-1H-indazol-5-yl)-3-(tetrahydrofuran-3-yl)-5,6-dihydroimidazo[1,5-a]pyrazine-7(8H)-carboxylate]: the IC50 at BRD4(49-170) bromodomain turned out to be 13900 nM. In the case of `CNC(=O)N1CCn2c(C3CCOC3)nc(-c3ccc4c(c3)c(-c3cnn(C)c3)nn4C)c2C1` (stereo not drawn) [Example 6, N-Methyl-1-(1-methyl-3-(1-methyl-1H-pyrazol-4-yl)-1H-indazol-5-yl)-3-(tetrahydrofuran-3-yl)-5,6-dihydroimidazo[1,5-a]pyrazine-7(8H)-carboxamide], the IC50 in experiment [1] was 24 nM; on BRD4(49-170) bromodomain, 8210 nM. As for `CNC(=O)N1CCn2c(C3CN(C)C3)nc(-c3ccc4c(c3)c(-c3cnn(C)c3)nn4C)c2C1` [Example 8, N-Methyl-1-(1-methyl-3-(1-methyl-1H-pyrazol-4-yl)-1H-indazol-5-yl)-3-(1-methylazetidin-3-yl)-5,6-dihydroimidazo[1,5-a]pyrazine-7(8H)-carboxamide], the values for the IC50 (in experiment [1]; at BRD4(49-170) bromodomain) were 115 nM and > 10000 nM, respectively. In the same order, the values of `CNC(=O)N1CCn2c(C3CN(C(C)=O)C3)nc(-c3ccc4c(c3)c(-c3cnn(C)c3)nn4C)c2C1` [Example 9, 3-(1-Acetylazetidin-3-yl)-N-methyl-1-(1-methyl-3-(1-methyl-1H-pyrazol-4-yl)-1H-indazol-5-yl)-5,6-dihydroimidazo[1,5-a]pyrazine-7(8H)-carboxamide] are 63 nM and > 10000 nM. Regarding `CC(=O)N1CCn2cnc(-c3ccc4c(c3)c(-c3cnn(C)c3)nn4C)c2C1` [Example 10, 1-(1-(1-Methyl-3-(1-methyl-1H-pyrazol-4-yl)-1H-indazol-5-yl)-5,6-dihydroimidazo[1,5-a]pyrazin-7(8H)-yl)ethanone], the IC50 in experiment [1] was 197 nM; on BRD4(49-170) bromodomain, > 10000 nM. On the same counts, the results for `CNC(=O)N1CCn2cnc(-c3ccc4c(c3)c(-c3cnn(C)c3)nn4C)c2C1` [Example 11, N-Methyl-1-(1-methyl-3-(1-methyl-1H-pyrazol-4-yl)-1H-indazol-5-yl)-5,6-dihydroimidazo[1,5-a]pyrazine-7(8H)-carboxamide] are 26 nM and > 10000 nM. For the molecule `CC(=O)N1CCn2c(C3CN(C(C)=O)C3)nc(-c3ccc4c(c3)c(-c3cnn(C)c3)nn4C)c2C1` [Example 12, 1-(3-(7-Acetyl-1-(1-methyl-3-(1-methyl-1H-pyrazol-4-yl)-1H-indazol-5-yl)-5,6,7,8-tetrahydroimidazo[1,5-a]pyrazin-3-yl)azetidin-1-yl)ethan-1-one], the IC50 at BRD4(49-170) bromodomain was > 10000 nM. `CC(=O)N1CCn2c(C3CN(C)C3)nc(-c3ccc4c(c3)c(-c3cnn(C)c3)nn4C)c2C1` [Example 13, 1-(1-(1-Methyl-3-(1-methyl-1H-pyrazol-4-yl)-1H-indazol-5-yl)-3-(1-methylazetidin-3-yl)-5,6-dihydroimidazo[1,5-a]pyrazin-7(8H)-yl)ethanone]: the IC50 in experiment [1] is 1380 nM; at BRD4(49-170) bromodomain it was > 10000 nM. `CC(=O)N1CCn2c(C3CCS(=O)(=O)CC3)nc(-c3ccc4c(c3)c(-c3cnn(C)c3)nn4C)c2C1` [Example 14, 1-[3-(1,1-Dioxothian-4-yl)-1-[1-methyl-3-(1-methylpyrazol-4-yl)indazol-5-yl]-6,8-dihydro-5H-imidazo[1,5-a]pyrazin-7-yl]ethanone]: the figures for the IC50 (in experiment [1]; on BRD4(49-170) bromodomain) were 286 nM and > 25000 nM, respectively.

In the case of `CNC(=O)N1CCn2c(C3CCS(=O)(=O)CC3)nc(-c3ccc4c(c3)c(-c3cnn(C)c3)nn4C)c2C1` [Example 15, 3-(1,1-Dioxothian-4-yl)-N-methyl-1-[1-methyl-3-(1-methylpyrazol-4-yl)indazol-5-yl]-6,8-dihydro-5H-imidazo[1,5-a]pyrazine-7-carboxamide], the IC50 stood at 46 nM in experiment [1] and 21900 nM on BRD4(49-170) bromodomain.

Consider `CC(=O)N1CCn2c(N3CCOCC3)nc(-c3ccc4c(c3)c(-c3cnn(C)c3)nn4C)c2C1` [Example 16, 1-(1-(1-Methyl-3-(1-methyl-1H-pyrazol-4-yl)-1H-indazol-5-yl)-3-morpho-lino-5,6-dihydroimidazo[1,5-a]pyrazin-7(8H)-yl)ethanone], for which the IC50 is 392 nM in experiment [1] and > 25000 nM on BRD4(49-170) bromodomain. Regarding `CNC(=O)c1ccc(-c2cc3cccc(-c4nc(C5CC5)n5c4CN(C(=O)NC)CC5)c3cn2)cn1` [Example 17, 3-Cyclopropyl-N-methyl-1-(3-(6-(methylcarbamoyl)pyridin-3-yl)isoquinolin-8-yl)-5,6-dihydroimidazo[1,5-a]pyrazine-7(8H)-carboxamide], the concentration for half-maximal inhibition (IC50) turned out to be 1 nM in experiment [1] and 5090 nM at BRD4(49-170) bromodomain.

Take `CNC(=O)N1CCn2c(C3CC3)nc(-c3cccc4cc(N5CCOCC5)ncc34)c2C1` [Example 18, 3-cyclopropyl-N-methyl-1-(3-morpholinoisoquinolin-8-yl)-5,6-dihydroimidazo[1,5-a]pyrazine-7(8H)-carboxamide]: the results for the IC50 (in experiment [1]; at BRD4(49-170) bromodomain) were 50 nM and > 25000 nM, respectively. With `CNC(=O)N1CCn2c(C3CC3)nc(-c3cccc4nc(-c5cnn(C)c5)c(C#N)cc34)c2C1` [Example 19, 1-(3-Cyano-2-(1-methyl-1H-pyrazol-4-yl)quinolin-5-yl)-3-cyclopropyl-N-methyl-5,6-dihydroimidazo[1,5-a]pyrazine-7(8H)-carboxamide], the figures for the IC50 (in experiment [1]; on BRD4(49-170) bromodomain) were 5 nM and > 25000 nM, respectively. Turning to `CNC(=O)N1CCn2c(C3CC(F)(F)C3)nc(-c3cccc4nc(-c5cnn(C)c5)c(C(F)(F)F)cc34)c2C1` [Example 20, 3-(3,3-Difluorocyclobutyl)-N-methyl-1-(2-(1-methyl-1H-pyrazol-4-yl)-3-(trifluoromethyl)quinolin-5-yl)-5,6-dihydroimidazo[1,5-a]pyrazine-7(8H)-carboxamide], the figures for the IC50 (in experiment [1]; at BRD4(49-170) bromodomain) were 18 nM and 25000 nM, respectively. For `CNC(=O)N1CCn2c(C3CC3)nc(-c3cccc4cc(C5CCOCC5)ncc34)c2C1` [Example 21, 3-Cyclopropyl-N-methyl-1-(3-(tetrahydro-2H-pyran-4-yl)isoquinolin-8-yl)-5,6-dihydroimidazo[1,5-a]pyrazine-7(8H)-carboxamide], the IC50 in experiment [1] was 20 nM; at BRD4(49-170) bromodomain it was > 25000 nM. For the molecule `CNC(=O)N1CCn2c(C3CC3)nc(-c3c(F)ccc4cc(-c5cnc(C)s5)ncc34)c2C1` [Example 22, 3-Cyclopropyl-1-(7-fluoro-3-(2-methylthiazol-5-yl)isoquinolin-8-yl)-N-methyl-5,6-dihydroimidazo[1,5-a]pyrazine-7(8H)-carboxamide], the figures for the IC50 (in experiment [1]; at BRD4(49-170) bromodomain) were 3 nM and 7060 nM, respectively. Turning to `CNC(=O)N1CCn2c(C3CC3)nc(-c3cccc4cc(-c5cnc(C)s5)ncc34)c2C1` [Example 23, 3-Cyclopropyl-N-methyl-1-(3-(2-methylthiazol-5-yl)isoquinolin-8-yl)-5,6-dihydroimidazo[1,5-a]pyrazine-7(8H)-carboxamide], the IC50 in experiment [1] was found to be 1 nM; on BRD4(49-170) bromodomain it was 3850 nM. In the case of `CNC(=O)N1CCn2c(C3CC3)nc(-c3cccc4nc(N5CCOCC5)c(C#N)cc34)c2C1` [Example 24, 1-(3-Cyano-2-morpholinoquinolin-5-yl)-3-cyclopropyl-N-methyl-5,6-dihydroimidazo[1,5-a]pyrazine-7(8H)-carboxamide], the figures for the IC50 (in experiment [1]; at BRD4(49-170) bromodomain) were 6 nM and 9110 nM, respectively.

For the molecule `CC(=O)N1CCn2c(C3CC3)nc(-c3ccc4c(c(-c5cnn(C)c5)nn4C)c3F)c2C1` [Example 25, 1-(3-cyclopropyl-1-(4-fluoro-1-methyl-3-(1-methyl-1H-pyrazol-4-yl)-1H-indazol-5-yl)-5,6-dihydroimidazo[1,5-a]pyrazin-7(8H)-yl)ethan-1-one], the IC50 was 57 nM in experiment [1] and 15900 nM on BRD4(49-170) bromodomain. As to `CC(=O)N1CCn2c(C3CC3)nc(-c3cnc4c(c3)c(-c3cnn(C)c3)nn4C)c2C1` [Example 26, 1-(3-cyclopropyl-1-(1-methyl-3-(1-methyl-1H-pyrazol-4-yl)-1H-pyrazolo[3,4-b]pyridin-5-yl)-5,6-dihydroimidazo[1,5-a]pyrazin-7(8H)-yl)ethan-1-one], the IC50 in experiment [1] is 181 nM; at BRD4(49-170) bromodomain it was > 25000 nM. For the molecule `CC(=O)N1CCn2c(C3CC3)nc(-c3ccc4nn(C)c(-c5cnn(C)c5)c4c3F)c2C1` [Example 27, 1-(3-Cyclopropyl-1-(4-fluoro-2-methyl-3-(1-methyl-1H-pyrazol-4-yl)-2H-indazol-5-yl)-5,6-dihydroimidazo[1,5-a]pyrazin-7(8H)-yl)ethan-1-one], the IC50 is 1220 nM in experiment [1] and > 25000 nM at BRD4(49-170) bromodomain.

A word on the IC50: it is the concentration at which inhibition is half-maximal. A low value points to higher potency.
